From PMC6262536 (Cells, 2018) come the findings set out here.

Common to all, as to experiment: cells
For assay [1], the system named is human colon adenocarcinoma cell line (LoVo). Type of assay: cell-based. To be noted: 72 h, SRB, mean ± SD. The text has this: (§1) The BALB/3T3 cell line was purchased from the American Type Culture Collection (ATCC, Manassas, VA, USA), A549 and MCF-7 cell lines—from European Collection of Authenticated Cell Cultures (Salisbury, UK), LoVo cell line was purchased from the ATCC (ATCC, Manassas, VA, USA), and LoVo/DX by courtesy of Prof. E. Borowski (Technical University of Gdańsk, Gdańsk, Poland). All the cell lines are maintained in the Institute of Immunology and Experimental Therapy (IIET), Wroclaw, Poland. […] Human breast adenocarcinoma cell line was cultured in mixture of Eagle medium (IIET, Wroclaw, Poland), supplemented with 10% fetal bovine serum, 2 mM L-glutamine, 8 μg/mL insulin and 1% amino-acids (Sigma-Aldrich, Merck KGaA, Saint Louis, MO, USA). […] Murine embryonic fibroblast cells were cultured in Dulbecco medium (Life Technologies Limited, Paisley, UK), supplemented with 10% fetal bovine serum (GE Healthcare, Logan, UT, USA) and 2 mM glutamine (Sigma-Aldrich, Merck KGaA, Saint Louis, MO, USA). All culture media contained antibiotics: 100 U/mL penicillin and 100 μg/mL streptomycin (Polfa-Tarchomin, Warsaw, Poland). All cell lines were cultured during entire experiment in humid atmosphere at 37 °C and 5% CO2. […] The procedure is repeated every year or in the case of less frequently used lines: after thawing.
(§2) Twenty-four hours before adding the tested compounds, all cell lines were seeded in 96-well plates (Sarstedt, Nümbrecht, Germany) in appropriate media with 10^4 cells per well. All cell lines were exposed to each tested agent at four different concentrations in the range 100–0.01 μg/mL for 72 h. […] Additionally, all cell lines were exposed to DMSO (solvent used for tested compounds) (POCh, Gliwice, Poland) at concentrations corresponding to those present in tested agents’ dilutions. After 72 h sulforhodamine B assay (SRB) was performed.
(§3) After 72 h of incubation with the tested compounds, cells were fixed in situ by gently adding of 50 μL per well of cold 50% trichloroacetic acid TCA (POCh, Gliwice, Poland) and were incubated at 4 °C for one hour. Following, wells were washed four times with water and air dried. Next, 50 μL of 0.1% solution of sulforhodamine B (Sigma-Aldrich, Merck KGaA, Saint Louis, MO, USA) in 1% acetic acid (POCh, Gliwice, Poland) were added to each well and plates were incubated at room temperature for 0.5 h. After incubation time, unbound dye was removed by washing plates four times with 1% acetic acid whereas stain bound to cells was solubilized with 10 mM Tris base (Sigma-Aldrich, Steinheim, Germany). Absorbance of each solution was read at Synergy H4 Hybrid Multi-Mode Microplate Reader (BioTek Instruments, Inc., Winooski, VT, USA) at the 540 nm wavelength.
(§4) Compounds at each concentration were tested in triplicates in single experiment and each experiment was repeated at least three times independently. The Resistance Index (RI) was defined as the ratio of IC50 for a given compound calculated for resistant cell line to that measured for its parental drug sensitive cell line (Table 1).

Assay [2] concerns human breast adenocarcinoma (MCF-7). Type of assay: cell-based. Particulars: MCF-7, 72 h, SRB, mean ± SD.
Excerpt: as §1, §2, §3, §4

Assay [3] relates to normal murine embryonic fibroblast cell line (BALB/3T3). Type of assay: cell-based. To be noted: normal murine fibroblasts BALB/3T3, 72 h, SRB, mean ± SD.
Excerpt: as §1, §2, §3, §4

Assay [4] concerns human lung adenocarcinoma (A549). In kind it is cell-based. To be noted: A549, 72 h, SRB, mean ± SD.
Excerpt: as §1, §2, §3, §4

In assay [5] the test system is doxorubicin-resistant subline (LoVo/DX). Type of assay: cell-based, human. Particulars: 72 h, SRB, mean ± SD.
Excerpt: as §1, §2, §3, §4

The IC50 is the concentration needed to halve the response being measured. `N.N.[Cl][Pt][Cl]` [Cisplatin, reference compound]: the IC50 in assay [1] was 4370 ± 730 nM; in assay [2], 10700 ± 753 nM; in assay [3], 3900 ± 1500 nM; in assay [4] it was 6370 ± 1410 nM; in assay [5], 5700 ± 630 nM.
With `COc1c(Cl)c2c(c(OC)c1OC)-c1ccc(OC)c(=O)cc1[C@@H](NC(C)=O)CC2` [Compound 3, 4-chlorocolchicine], the IC50 in assay [1] (Homo sapiens) was found to be 69 ± 12 nM; in assay [2] (Homo sapiens, MCF7), 23 ± 5 nM; in assay [3] (Mus musculus), 138 ± 69 nM; in assay [4] (Homo sapiens) it was 46 ± 35 nM; in assay [5] (Homo sapiens), 784 ± 280 nM.
Turning to `COc1c(Cl)c2c(c(OC)c1OC)-c1ccc(SC)c(=O)cc1[C@@H](NC(C)=O)CC2` [Compound 4], the IC50 in assay [1] (Homo sapiens) stood at 22 ± 2 nM; in assay [2] (Homo sapiens, MCF7) it was 22 ± 2 nM; in assay [3] (Mus musculus), 22 ± 2 nM; in assay [4] (Homo sapiens), 22 ± 2 nM; in assay [5] (Homo sapiens), 111 ± 44 nM.
As for `COc1c(Br)c2c(c(OC)c1OC)-c1ccc(OC)c(=O)cc1[C@@H](NC(C)=O)CC2` [Compound 5, 4-bromocolchicine], the IC50 in assay [1] (Homo sapiens) was determined as 84 ± 21 nM; in assay [2] (Homo sapiens, MCF7) it was 27 ± 8 nM; in assay [3] (Mus musculus), 142 ± 73 nM; in assay [4] (Homo sapiens), 105 ± 8 nM; in assay [5] (Homo sapiens), 1550 ± 170 nM.
`COc1c(Br)c2c(c(OC)c1OC)-c1ccc(SC)c(=O)cc1[C@@H](NC(C)=O)CC2` [Compound 6, 4-bromothiocolchine]: the IC50 was 14 ± 4 nM in assay [1] (Homo sapiens); 15 ± 2 nM in assay [2] (Homo sapiens, MCF7); 103 ± 89 nM in assay [3] (Mus musculus); 10 ± 0.1 nM in assay [4] (Homo sapiens); 135 ± 12 nM in assay [5] (Homo sapiens).
Turning to `COc1c(I)c2c(c(OC)c1OC)-c1ccc(OC)c(=O)cc1[C@@H](NC(C)=O)CC2` [Compound 7, 4-iodocolchicine], the IC50 came out at 10 ± 2 nM in assay [1] (Homo sapiens); 98 ± 29 nM in assay [2] (Homo sapiens, MCF7); 135 ± 56 nM in assay [3] (Mus musculus); 94 ± 6 nM in assay [4] (Homo sapiens); 2780 ± 450 nM in assay [5] (Homo sapiens).
`COc1c(I)c2c(c(OC)c1OC)-c1ccc(SC)c(=O)cc1[C@@H](NC(C)=O)CC2` [Compound 8, 4-iodothiocolchicine]: the IC50 stood at 7 ± 2 nM in assay [1] (Homo sapiens); 17 ± 6 nM in assay [2] (Homo sapiens, MCF7); 115 ± 44 nM in assay [3] (Mus musculus); 11 ± 2 nM in assay [4] (Homo sapiens); 642 ± 84 nM in assay [5] (Homo sapiens).
Take `COc1cccc2c1C(=O)c1c(O)c3c(c(O)c1C2=O)C[C@@](O)(C(=O)CO)C[C@@H]3O[C@H]1C[C@H](N)[C@H](O)[C@H](C)O1` [Doxorubicin, reference compound]: the IC50 in assay [3] (Mus musculus) came out at 166 ± 74 nM; in assay [4] (Homo sapiens) it was 258 ± 44 nM; in assay [5] (Homo sapiens), 4750 ± 990 nM.
